Values after ≈ are worked out from the molar mass of the structure shown.
Key:
SARS-CoV-2 = assay: Antiviral activity assay (SARS-CoV-2 nucleoprotein ELISA, CPE observation) in Vero E6 cells; format: cell-based; conditions: Severe acute respiratory syndrome coronavirus 2, Vero C1008
MTS cytotoxicity assay = conditions: African green monkey (Cercopithecus aethiops), Vero E6 cells

CCC(CC)COC(=O)[C@H](C)N[P@](=O)(OC[C@H]1O[C@@](C#N)(c2ccc3c(N)ncnn23)[C@H](O)[C@@H]1O)Oc1ccccc1 [Remdesivir]
activity at 0.05 µg/mL (SARS-CoV-2; 0.05 μg mL^−1, m.o.i. 0.01, 72 hours, ELISA, untreated infected control =100%, read-out: Antiviral activity (% viral NC protein, compared to untreated control)): 107 ± 23% | activity at 0.24 µg/mL (SARS-CoV-2; 0.24 μg mL^−1, m.o.i. 0.01, 72 hours, ELISA, untreated infected control =100%, read-out: Antiviral activity (% viral NC protein, compared to untreated control)): 96 ± 10% | activity at 1.2 µg/mL (SARS-CoV-2; 1.2 μg mL^−1, m.o.i. 0.01, 72 hours, ELISA, untreated infected control =100%, read-out: Antiviral activity (% viral NC protein, compared to untreated control)): 73 ± 9% | activity at 6 µg/mL (SARS-CoV-2; 6 μg mL^−1, m.o.i. 0.01, 72 hours, ELISA, untreated infected control =100%, read-out: Antiviral activity (% viral NC protein, compared to untreated control)): 14 ± 7% | IC50 (SARS-CoV-2; Vero E6, m.o.i. 0.01, 72 hours, nucleoprotein ELISA, read-out: 50% inhibitory concentration (IC50), SARS-CoV-2 viral replication): 1.9 µg/mL (≈ 3.15 µM) | CC50 at 72 h (MTS cytotoxicity assay): > 120 µg/mL | viability at 72 h, 2.4 μg mL^−1 (MTS cytotoxicity assay): 94.1 ± 1% | viability at 72 h, 12 μg mL^−1 (MTS cytotoxicity assay): 98.9 ± 6.7% | viability at 72 h, 60 μg mL^−1 (MTS cytotoxicity assay): 82.1 ± 2.2%
